Laboratory results as given in PubChem BioAssay (NCI).
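Five compound concentrations were applied to cells in 96-well plates for 48 hours; endpoints were derived by simple linear interpolation of the resulting dose-response curve. GI50 = concentration required for 50% inhibition of growth. TGI is the concentration that stops growth completely.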

How the values were obtained:
Assay in all cases: NCI tumour cell line growth inhibition, 48 h
[1] = test system: HCT-15 colon
[2] = test system: M14 melanoma
[3] = test system: MDA-MB-231 breast
[4] = test system: MDA-MB-435
[5] = test system: OVCAR-4 ovarian
[6] = test system: OVCAR-8 ovarian
[7] = test system: SF-268 CNS
[8] = test system: T-47D breast
[9] = test system: U251 CNS
[10] = test system: SK-MEL-2 melanoma

Compound | GI50 [1] [µM] | TGI [1] [µM] | GI50 [2] [µM] | TGI [2] [µM] | GI50 [3] [µM] | TGI [3] [µM] | GI50 [4] [µM] | TGI [4] [µM] | GI50 [5] [µM] | TGI [5] [µM] | GI50 [6] [µM] | TGI [6] [µM] | GI50 [7] [µM] | TGI [7] [µM] | GI50 [8] [µM] | TGI [8] [µM] | GI50 [9] [µM] | TGI [9] [µM] | TGI [10] [µM] | GI50 [10] [µM]
C[As](C)SCC(COC(=O)C(Cl)c1ccccc1)OC(=O)C(Cl)c1ccccc1 (stereo not given) | 0.229 | 4.02 | 0.614 | 15.7 | 1.53 | 4.95 | 0.367 | 3.13 | 4.38 | 18 | 3.41 | > 35.2 | 3.3 | 14.9 | 17.1 | > 45.8 | 3.42 | 31.6 |  | 
Oc1ccc2ccccc2c1N=Nc1ccsc1 |  | > 100 |  | > 100 |  |  |  |  |  | > 100 |  | > 100 |  | > 100 |  |  |  | > 100 | > 100 | 
O=C(c1ccccc1)C(CN1CCCCC1)c1ccccc1 (stereo not given) | 0.599 | 2.06 | 0.865 | 2.63 | 1.82 | 4.37 | 1.67 | 4.19 | 1.54 | 4.52 | 1.7 | 4.36 | 3.98 | 16.1 |  |  | 1.48 | 3.24 | 8.73 | 2.85
C[C@]12CC/C(=N\O)C=C1CC[C@@H]1C2CC[C@@]2(C)C1CC[C@@H]2OC1CCCCO1 (stereo not given in full) |  | 43.2 |  | 35.3 |  |  |  |  |  | 31.9 |  | > 100 |  | 55.2 |  |  |  | 32.4 | 30.4 | 
CO/N=C(\C)c1ccc(Nc2cc(-c3ccccc3)nc3ccc(OC)cc23)cc1 | 3.17 | 11 | 2.35 | 4.77 | 1.23 | 3.24 | 1.76 | 3.46 | 7.81 | > 100 |  |  | 10.2 | 28.8 | 33.7 | > 100 | 2.05 | 4.79 | > 100 | 6.27
COc1c2ccoc2c(OC)c2oc(=O)ccc12 |  | > 100 |  | > 100 |  | > 100 |  | > 100 |  | > 100 |  | > 100 |  | > 100 |  | > 100 |  | > 100 |  | 
Cn1cnc([N+](=O)[O-])c1Sc1nccn1-c1cccc2ccccc12 |  |  |  | 61 |  |  |  |  |  | 95.3 |  | 58.8 |  | 84.2 |  |  |  | > 100 | 37.5 | 
Nc1c(C(=O)Nc2cccc(F)c2)sc2nc3c(cc12)C(=O)CCC3 | 0.298 | > 100 | 0.397 | > 100 | 1.67 | > 75.2 |  |  | > 55.1 | > 100 | 31.1 | > 100 | 37 | > 100 |  | > 100 | 0.488 | > 69 | > 81.6 | 0.492
Cc1ccc(S(=O)(=O)NC2(C=O)CCCC3CCCCC32)cc1 (stereo not given) |  | > 100 |  | > 100 |  |  |  |  |  | > 100 |  | > 100 |  | > 100 |  |  |  | > 100 | > 100 | 
CC(=O)C1C(c2ccc(N(C)C)cc2)c2cc3c(cc2OC1(C)O)OCO3 (stereo not given) |  | > 100 |  | > 100 |  |  |  |  |  | > 100 |  | > 100 |  |  |  |  |  | > 100 | > 100 | 
CCN(CC)CC(O)CNc1c2ccc([N+](=O)[O-])cc2nc2cc(OC)c(OC)cc12 (stereo not given) | 0.854 | 3.6 | 0.368 | 1.55 | 0.244 | 0.883 | 0.374 | 1.42 | 0.162 | 0.574 | 0.55 | 11 | 0.293 | 1.34 | 0.369 | 1.62 |  |  | 0.659 | 0.256
O=C(Nc1ccc(Cl)c(Cl)c1)Nc1c(Oc2ccc(Cl)c(Cl)c2)ccc(Cl)c1S(=O)(=O)O |  |  | 1.09 | > 100 | 1.98 | 66.8 |  |  |  |  | 3.7 | > 100 | 3.82 | > 100 |  |  | 3.16 | > 100 |  | 
COc1cc(N(C)C)c(OC)cc1/C=C\c1ccnc2ccccc12 |  | > 10 |  | > 10 |  | > 10 |  | 4.26 |  | > 10 |  | > 10 |  | > 10 |  |  |  | > 10 | 8.03 | 
CN1C(=O)C2C3C=C4c5ccccc5N(c5ccccc5)C4(C2C1=O)[C@H]1C(=O)N(C)C(=O)[C@@H]31 (stereo not given in full) |  |  |  | > 100 |  |  |  |  |  | > 100 |  | > 100 |  | > 100 |  |  |  | > 100 | > 100 | 
O=c1c(Br)cc2nc3ccccc3sc-2c1Br |  | > 100 |  | > 100 |  |  |  |  |  | > 70.9 |  | 41.4 |  | > 100 |  |  |  | > 100 | > 100 | 
CC(=O)OC[C@@H](COC(=O)/C=C/c1ccc(O)cc1)OC1OC(CO)C(O)C(O)C1O (stereo not given in full) |  | > 100 |  | > 100 |  |  |  |  |  | > 100 |  | > 100 |  | > 100 |  |  |  | > 100 | > 100 | 
CCOC(=O)N1CCC(=O)C(CNC23CC4CC(CC(C4)C2)C3)C1 (stereo not given) |  |  |  |  |  |  |  |  |  | 29 |  | 44.5 |  | > 100 |  |  |  | > 100 | > 100 | 
CC12CCC3(OCCO3)C(OC(=O)c3ccccc3)=C1CCC21OCCO1 (stereo not given) |  | > 100 |  | > 100 |  |  |  |  |  | > 100 |  | > 100 |  | > 100 |  |  |  | > 100 |  | 
O=C(O)CCC(N=Cc1nc(-c2ccccc2)oc1O)C(=O)O (stereo not given) |  | > 100 |  | > 100 |  |  |  |  |  | > 100 |  | > 100 |  | > 100 |  |  |  | > 100 | > 100 | 
C#Cc1c(/C=C/C(=O)OCC)ccc2ccccc12 | 9.99 | 97.3 | 18.9 | 46 | 13.4 | 35 | 2.11 | 5.78 | 20.7 | 69.1 | 35.1 | > 100 | 18.2 | 58.5 | 42.8 | > 100 | 11.2 | 31.7 |  | 
COc1ccc2ccccc2c1C1NC(=O)c2ccccc2N1 (stereo not given) |  | 6.21 |  | 10.2 |  | > 41.8 |  | 0.461 |  |  |  | 31.8 |  | > 100 |  | > 100 |  | 8.78 | > 100 | 
